US20250230193A1, “CYCLIC COMPOUND HAVING SELECTIVE KRAS INHIBITORY EFFECT ON HRAS AND NRAS” (CHUGAI SEIYAKU KABUSHIKI KAISHA, priority 2022, published 2025)
Where a SMILES comes first, the peptide text is derived from it. Bridges are numbered along the chain shown (N, C = ends). [ ]: non-standard residue; d: D form. The star is where a group is joined. hPhe(3-Cl-4-CF3) = N[C@@H](CCc1ccc(C(F)(F)F)c(Cl)c1)C(=O)O; NPrPhe(4-CF3) = CCCN[C@@H](Cc1ccc(C(F)(F)F)cc1)C(=O)O; NMeGly(cPent) = CN[C@H](C(=O)O)C1CCCC1; Pro(4,4-F2) = O=C(O)[C@@H]1CC(F)(F)CN1; NMeD = CN[C@@H](CC(=O)O)C(=O)O; NMeL = CN[C@@H](CC(C)C)C(=O)O; Morpholide = C1CN(*)CCO1; Aze = O=C(O)[C@@H]1CCN1; Ac4c = NC1(C(=O)O)CCC1; Sar = CNCC(=O)O

Columns and labels:
[1] = target: GDP-bound NRAS wild-type protein (Homo sapiens, UniProt P01111); experiment: Binding to NRAS by surface plasmon resonance (SPR), Single Cycle Kinetics; details: for NRAS/KRAS (ratio of KD value with respect to NRAS to KD value with respect to KRAS): GDP-bound NRAS wild-type vs GDP-bound KRAS wild-type
[2] = target: GDP-bound HRAS wild-type protein (Homo sapiens, UniProt P01112); experiment: Binding to HRAS by surface plasmon resonance (SPR), Single Cycle Kinetics; details: for HRAS/KRAS (ratio of KD value with respect to HRAS to KD value with respect to KRAS): GDP-bound HRAS wild-type vs GDP-bound KRAS wild-type
[3] = SPR, GDP-bound wild-type proteins

Chain of GDP-bound NRAS wild-type protein (P01111 whole entry): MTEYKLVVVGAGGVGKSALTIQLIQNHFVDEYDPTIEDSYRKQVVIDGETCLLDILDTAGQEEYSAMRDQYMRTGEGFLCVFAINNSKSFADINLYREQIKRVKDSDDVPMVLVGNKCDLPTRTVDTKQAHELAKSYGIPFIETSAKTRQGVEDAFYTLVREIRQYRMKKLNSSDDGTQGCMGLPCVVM
Chain of GDP-bound HRAS wild-type protein (P01112 whole entry): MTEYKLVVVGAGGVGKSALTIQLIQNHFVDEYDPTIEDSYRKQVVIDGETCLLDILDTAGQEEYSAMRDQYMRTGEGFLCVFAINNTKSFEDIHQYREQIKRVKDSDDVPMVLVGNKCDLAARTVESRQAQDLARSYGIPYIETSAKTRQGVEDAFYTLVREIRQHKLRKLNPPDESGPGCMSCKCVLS

## CCC[C@H]1C(=O)N[C@@H]([C@@H](C)CC)C(=O)N(C2CC2)CC(=O)N(C)[C@H]2C/C=C\CCN(C2=O)[C@@H](Cc2ccc(C(F)(F)F)cc2)C(=O)N(C)CC(=O)N[C@@H](CCc2ccc(C(F)(F)F)c(OC)c2)C(=O)N2C[C@H](OCC)C[C@H]2C(=O)NC2(CC(C)(C)C2)C(=O)N(C)[C@@H](CC(C)(C)C)C(=O)N(C)[C@H](C(=O)N(C)C)CC(=O)N1C [PP2746]
[1]; class symbols
  NRAS/KRAS (ratio of KD value with respect to GDP-bound NRAS wild-type protein to KD value with respect to KRAS): A (a compound having 10 or more and less than 20 is denoted as A)
[2]; class symbols
  HRAS/KRAS (ratio of KD value with respect to GDP-bound HRAS wild-type protein to KD value with respect to KRAS): A (a compound having 10 or more and less than 20 is denoted as A)

## CCC[C@H]1C(=O)N[C@@H]([C@@H](C)CC)C(=O)N(C2CC2)CC(=O)N(C)[C@H]2C/C=C\CCN(C2=O)[C@@H](Cc2ccc(C(F)F)cc2)C(=O)N(C)CC(=O)N[C@@H](CCc2cc(F)c(C(F)(F)F)c(F)c2)C(=O)N2C[C@H](OCC)C[C@H]2C(=O)NC2(CC(C)(C)C2)C(=O)N(C)[C@@H](C(CC)CC)C(=O)N(C)[C@H](C(=O)N(C)C)CC(=O)N1C [PP2527]
[1]; class symbols
  NRAS/KRAS (ratio of KD value with respect to GDP-bound NRAS wild-type protein to KD value with respect to KRAS): AA (a compound having 20 or more is denoted as AA)
[2]; class symbols
  HRAS/KRAS (ratio of KD value with respect to GDP-bound HRAS wild-type protein to KD value with respect to KRAS): A (a compound having 10 or more and less than 20 is denoted as A)

## CCO[C@@H]1C[C@H]2C(=O)NC3(CC(F)(F)C3)C(=O)N(C)[C@@H](C3CCCC3)C(=O)N(C)[C@H](C(=O)N3CCOCC3)CC(=O)N(C)[C@@H](COC)C(=O)N[C@@H]([C@@H](C)CC)C(=O)N(C)CC(=O)N(C)[C@H]3CCCCCN(C3=O)[C@@H](Cc3ccc(C(F)(F)F)cc3)C(=O)N(C)CC(=O)N[C@@H](CCc3cc(F)c(C(F)(F)F)c(F)c3)C(=O)N2C1 [PP0843]
[1]; KD ratio, SPR
  NRAS/KRAS (ratio of KD value with respect to NRAS to KD value with respect to KRAS): B (a compound having 3 or more and less than 10 is denoted as B)
[2]; KD ratio, SPR
  HRAS/KRAS (ratio of KD value with respect to HRAS to KD value with respect to KRAS): B (a compound having 3 or more and less than 10 is denoted as B)

## CCCN1C(=O)CN(C)C(=O)CN(C)C(=O)[C@H]([C@@H](C)CC)NC(=O)[C@@H]2CCCCCCOc3ccc(cc3)C[C@H]1C(=O)N(C)CC(=O)N[C@@H](CCc1cc(F)c(C(F)(F)F)c(F)c1)C(=O)N1C[C@H](OCC)C[C@H]1C(=O)NC1(CCCC1)C(=O)N(C)[C@@H](C1CCCC1)C(=O)N(C)[C@H](C(=O)N(C)C)CC(=O)N2C [PP0896]
[1]; KD ratio, SPR
  NRAS/KRAS (ratio of KD value with respect to NRAS to KD value with respect to KRAS): C (A compound having a KD ratio of 0.1 or more and less than 3 is denoted as C)
[2]; KD ratio, SPR
  HRAS/KRAS (ratio of KD value with respect to HRAS to KD value with respect to KRAS): C (A compound having a KD ratio of 0.1 or more and less than 3 is denoted as C)

## CCCN1C(=O)CN(C)C(=O)[C@@H]2CCN2C(=O)[C@H]([C@@H](C)CC)NC(=O)[C@H](CC(C)C)N(C)C(=O)C[C@@H](C(=O)N(C)C)NC(=O)[C@H](C2CCCC2)N(C)C(=O)C2(CCC2)NC(=O)[C@@H]2CC(F)(F)CN2C(=O)[C@H](CCc2ccc(C(F)(F)F)c(Cl)c2)NC(=O)CN(C)C(=O)[C@@H]1Cc1ccc(C(F)(F)F)cc1 [PP0376] ([NMeL]I[Aze][Sar][NPrPhe(4-CF3)][Sar][hPhe(3-Cl-4-CF3)][Pro(4,4-F2)][Ac4c][NMeGly(cPent)]D-NMe2; lactam N-11)
[1]; SPR
  NRAS/KRAS (ratio of KD for GDP-bound NRAS wild-type to KD for KRAS): B (a compound having 3 or more and less than 10 is denoted as B)
[2]; SPR
  HRAS/KRAS (ratio of KD for GDP-bound HRAS wild-type to KD for KRAS): B (a compound having 3 or more and less than 10 is denoted as B)

## CCCN1C(=O)CN(C)C(=O)CNC(=O)[C@H]([C@@H](C)CC)NC(=O)[C@H](CC(C)C)N(C)C(=O)C[C@@H](C(=O)N2CCOCC2)N(C)C(=O)[C@H](C2CCCC2)N(C)C(=O)C2(CCC2)NC(=O)[C@@H]2CCCN2C(=O)[C@H](CCc2ccc(C(F)(F)F)c(Cl)c2)NC(=O)CN(C)C(=O)[C@@H]1Cc1ccc(C(F)(F)F)cc1 [PP0393] ([NMeL]IG[Sar][NPrPhe(4-CF3)][Sar][hPhe(3-Cl-4-CF3)]P[Ac4c][NMeGly(cPent)][NMeD]-Morpholide; lactam N-11)
[1]; SPR
  NRAS/KRAS (ratio of KD for GDP-bound NRAS wild-type to KD for KRAS): B (a compound having 3 or more and less than 10 is denoted as B)
[2]; SPR
  HRAS/KRAS (ratio of KD for GDP-bound HRAS wild-type to KD for KRAS): B (a compound having 3 or more and less than 10 is denoted as B)

## CCC(CC)[C@H]1C(=O)N(C)[C@H](C(=O)N(C)C)CC(=O)N(C)[C@@H](COC)C(=O)N[C@@H]([C@@H](C)CC)C(=O)N(C)CC(=O)N(C)[C@H]2C/C=C\CCN(C2=O)[C@@H](Cc2ccc(C)cc2)C(=O)N(C)CC(=O)N[C@@H](CCc2ccc(Cl)c(Cl)c2)C(=O)N2CCCCC[C@H]2C(=O)NC2(CC(C)(C)C2)C(=O)N1C [PP2974]
[1]; [3]
  NRAS/KRAS (ratio of KD value with respect to GDP-bound NRAS wild-type protein to KD value with respect to KRAS): A (a compound having 10 or more and less than 20 is denoted as A)
[2]; [3]
  HRAS/KRAS (ratio of KD value with respect to GDP-bound HRAS wild-type protein to KD value with respect to KRAS): A (a compound having 10 or more and less than 20 is denoted as A)

## CCC[C@H]1C(=O)N[C@@H]([C@@H](C)CC)C(=O)N(C)CC(=O)N(C)[C@H]2C/C=C\CCN(C2=O)[C@@H](Cc2ccc(C)cc2)C(=O)N(C)CC(=O)N[C@@H](CCc2ccc3sc(C)c(C)c3c2)C(=O)N2C[C@H](OCC)C[C@H]2C(=O)NC2(CC(C)(C)C2)C(=O)N(C)[C@@H](C2CCCC2)C(=O)N(C)[C@H](C(=O)N(C)C)CC(=O)N1C [PP2891]
[1]; class symbols
  NRAS/KRAS (ratio of KD value with respect to GDP-bound NRAS wild-type protein to KD value with respect to KRAS): A (a compound having 10 or more and less than 20 is denoted as A)
[2]; class symbols
  HRAS/KRAS (ratio of KD value with respect to GDP-bound HRAS wild-type protein to KD value with respect to KRAS): B (a compound having 3 or more and less than 10 is denoted as B)

## CCO[C@@H]1C[C@H]2C(=O)NC3(CCC3)C(=O)N(C)[C@@H](C3CCCC3)C(=O)N(CCC3CCC3)[C@H](C(=O)N(C)C)CC(=O)N(C)[C@@H](CC)C(=O)N[C@@H]([C@@H](C)CC)C(=O)N(C)CC(=O)N(C)[C@H]3CCCCN(C3=O)[C@@H](Cc3ccc(C(F)(F)F)cc3)C(=O)N(C)CC(=O)N[C@@H](CCc3cc(F)c(C(F)(F)F)c(F)c3)C(=O)N2C1 [PP0645]
[1]; SPR
  NRAS/KRAS (ratio of KD value with respect to GDP-bound NRAS wild-type protein to KD value with respect to KRAS): B (a compound having 3 or more and less than 10 is denoted as B)
[2]; SPR
  HRAS/KRAS (ratio of KD value with respect to GDP-bound HRAS wild-type protein to KD value with respect to KRAS): B (a compound having 3 or more and less than 10 is denoted as B)

## CCC[C@H]1C(=O)N[C@@H]([C@@H](C)CC)C(=O)N(C)CC(=O)N(C)[C@H]2C/C=C\CCN(C2=O)[C@@H](Cc2ccc(C)cc2)C(=O)N(C)CC(=O)N[C@@H](CCc2ccc(C(F)(F)F)c(OC)c2)C(=O)N2C[C@H](OCC)C[C@H]2C(=O)NC2(CC(C)(C)C2)C(=O)N(C)[C@@H](C(CC)CC)C(=O)N(C)[C@H](C(=O)N(C)C)CC(=O)N1C [PP2068]
[1]; SPR
  NRAS/KRAS (ratio of KD value with respect to NRAS to KD value with respect to KRAS): A (a compound having 10 or more and less than 20 is denoted as A)
[2]; SPR
  HRAS/KRAS (ratio of KD value with respect to HRAS to KD value with respect to KRAS): B (a compound having 3 or more and less than 10 is denoted as B)

## CCO[C@@H]1C[C@H]2C(=O)NC3(CCC3)C(=O)N(C)[C@@H](C3CCCC3)C(=O)N(C)[C@H](C(=O)N(C)C)CC(=O)N(C)[C@@H](CC)C(=O)N[C@@H]([C@@H](C)CC)C(=O)N3CC[C@H]3C(=O)N(C)[C@H]3CC(C)=C(C)CN(C3=O)[C@@H](Cc3ccc(C(F)(F)F)cc3)C(=O)N(C)CC(=O)N[C@@H](CCc3cc(F)c(C(F)(F)F)c(F)c3)C(=O)N2C1 [PP1049]
[1]; KD ratio, SPR
  NRAS/KRAS (ratio of KD value with respect to NRAS to KD value with respect to KRAS): C (A compound having a KD ratio of 0.1 or more and less than 3 is denoted as C)
[2]; KD ratio, SPR
  HRAS/KRAS (ratio of KD value with respect to HRAS to KD value with respect to KRAS): C (A compound having a KD ratio of 0.1 or more and less than 3 is denoted as C)

## CCO[C@@H]1C[C@H]2C(=O)NC3(CC(C)(C)C3)C(=O)N(C)[C@@H](C3CCCC3)C(=O)N(C)[C@H](C(=O)N3CCCCC3)CC(=O)N(C)[C@H]3CC/C=C/c4ccc(cc4)C[C@@H](C(=O)N(C)CC(=O)N[C@@H](CCc4ccc(Cl)c(Cl)c4)C(=O)N2C1)N1CC/C=C\C[C@@H](C1=O)N(C)C(=O)CN(C)C(=O)[C@H]([C@@H](C)CC)NC3=O [PP2597]
[1]; class symbols
  NRAS/KRAS (ratio of KD value with respect to GDP-bound NRAS wild-type protein to KD value with respect to KRAS): A (a compound having 10 or more and less than 20 is denoted as A)
[2]; class symbols
  HRAS/KRAS (ratio of KD value with respect to GDP-bound HRAS wild-type protein to KD value with respect to KRAS): A (a compound having 10 or more and less than 20 is denoted as A)

## CCC[C@H]1C(=O)N[C@@H]([C@@H](C)CC)C(=O)N(C)CC(=O)N(C)[C@H]2C/C=C\CCN(C2=O)[C@@H](CC2CCC(F)(F)CC2)C(=O)N(C)CC(=O)N[C@@H](CCc2ccc(C(F)(F)F)c(OC)c2)C(=O)N2C[C@H](OCC)C[C@H]2C(=O)N(C)C2(CCC2)C(=O)N(C)[C@@H](C2CCCC2)C(=O)N(C)[C@H](C(=O)N(C)C)CC(=O)N1C [PP2348]
[1]; SPR
  NRAS/KRAS (ratio of KD value with respect to NRAS to KD value with respect to KRAS): A (a compound having 10 or more and less than 20 is denoted as A)
[2]; SPR
  HRAS/KRAS (ratio of KD value with respect to HRAS to KD value with respect to KRAS): A (a compound having 10 or more and less than 20 is denoted as A)

## CCCOC[C@H]1C(=O)N[C@@H]([C@@H](C)CC)C(=O)N(C)CC(=O)N(C)[C@H]2C/C=C\CCN(C2=O)[C@@H](Cc2ccc(C)cc2)C(=O)N(C)CC(=O)N[C@@H](CCc2ccc(C(F)(F)F)c(OC)c2)C(=O)N2C[C@H](OCC)C[C@H]2C(=O)NC2(CC(C)(C)C2)C(=O)N(C)[C@@H](C2CCCC2)C(=O)N(C)[C@H](C(=O)N(C)C)CC(=O)N1C [PP2449]
[1]; SPR
  NRAS/KRAS (ratio of KD value with respect to NRAS to KD value with respect to KRAS): A (a compound having 10 or more and less than 20 is denoted as A)
[2]; SPR
  HRAS/KRAS (ratio of KD value with respect to HRAS to KD value with respect to KRAS): A (a compound having 10 or more and less than 20 is denoted as A)
